Test results from the CheMixHub ionic liquid set.

Assay: xn = mol fraction of the nth substance listed

CCCC[n+]1ccn(C)c1.F[P-](F)(F)(F)(F)F + CCC(C)=O
298.15 K, 101.3 kPa
Details	viscosity [mPa·s]
x2 = 0.3016	43.3
x2 = 0.4024	23.55
x2 = 0.4485	18.18
x2 = 0.6517	5.15

CC#N + CCCCCCCC(=O)[O-].c1c[nH+]c[nH]1
101.3 kPa, x1 = 1
Details	viscosity [mPa·s]
298.15 K	0.333
323.15 K	0.223

CC(CC(C)(C)C)CP(=O)([O-])CC(C)CC(C)(C)C.CCCCCCCCCCCCCC[P+](CCCCCC)(CCCCCC)CCCCCC + CCCCCCCCCCCC
101 kPa
Details	viscosity [mPa·s]
298.15 K, x1 = 0.4684	82
303.15 K, x1 = 1	757
308.15 K, x1 = 0.4684	56.3
318.15 K, x1 = 0.6647	103
338.15 K, x1 = 0.6647	50.4
343.15 K, x1 = 0.6647	43.4
343.15 K, x1 = 1	111

CC(CC(C)(C)C)CP(=O)([O-])CC(C)CC(C)(C)C.CCCCCCCCCCCCCC[P+](CCCCCC)(CCCCCC)CCCCCC + CCCCCCCCCCCC + O
Details	viscosity [mPa·s]
303.15 K, 100 kPa, x2 = 0, x3 = 0.8861	119.5

CCCCCCCCCCCCCCCCCC[n+]1ccn(C)c1.O=S(=O)([N-]S(=O)(=O)C(F)(F)F)C(F)(F)F + CCCCCCCCCCCCCCCCn1cc[n+](C)c1.O=S(=O)([N-]S(=O)(=O)C(F)(F)F)C(F)(F)F
Details	viscosity [mPa·s]
323 K, 101 kPa, x2 = 0.621	89.5

CCCCCCCCCCCCCCCCCC[n+]1ccn(C)c1.O=S(=O)([N-]S(=O)(=O)C(F)(F)F)C(F)(F)F + CCCCCCCCCCCCCC[n+]1ccn(C)c1.O=S(=O)([N-]S(=O)(=O)C(F)(F)F)C(F)(F)F
Details	viscosity [mPa·s]
323 K, 101 kPa, x2 = 0.7675	62.9

CCCCCCCCCCCCCCCC[n+]1ccn(C)c1.[Cl-] + CCCCCCCCCCCC[N+](C)(C)C.[Br-] + O
100 kPa, frequency 0.002 MHz
Details	electrical conductivity [S/m]
303.15 K, x1 = 5.946e-05, x2 = 1.478e-05	0.025
303.15 K, x1 = 7.207e-05, x2 = 1.802e-05	0.0286
303.15 K, x1 = 9.712e-05, x2 = 2.433e-05	0.0355
313.15 K, x1 = 6.13e-06, x2 = 2.433e-05	0.0202
313.15 K, x1 = 7.75e-06, x2 = 1.802e-05	0.0184
313.15 K, x1 = 2.09e-05, x2 = 2.34e-06	0.0146
323.15 K, x1 = 9.19e-06, x2 = 2.126e-05	0.0259

CCCC[n+]1ccn(C)c1.O=S(=O)([N-]S(=O)(=O)C(F)(F)F)C(F)(F)F + CCCCCCCCCO
Details	viscosity [mPa·s]
298 K, 100 kPa, x1 = 1	49.7

CCCC[n+]1ccn(C)c1.O=S(=O)([N-]S(=O)(=O)C(F)(F)F)C(F)(F)F + CCCCCCCCO
Details	viscosity [mPa·s]
298 K, 100 kPa, x1 = 1	49.7

CCCCCCO + CCCCCCCC[n+]1ccc2ccccc2c1.O=S(=O)([N-]S(=O)(=O)C(F)(F)F)C(F)(F)F
Details	viscosity [mPa·s]
328.15 K, 101 kPa, x1 = 1	1.97

CN(C)C=O + CCCCCCCC[n+]1ccn(C)c1.F[P-](F)(F)(F)(F)F
101 kPa, x2 = 0
Details	viscosity [mPa·s]
293.15 K	0.881
303.15 K	0.771
313.15 K	0.668
323.15 K	0.605
333.15 K	0.553
353.15 K	0.479
363.15 K	0.447

CN(C)C=O + CCCCCCCCn1cc[n+](C)c1.N#C[S-]
101 kPa, x2 = 0
Details	viscosity [mPa·s]
293.15 K	0.881
303.15 K	0.771
313.15 K	0.668
323.15 K	0.605
333.15 K	0.553
353.15 K	0.479
363.15 K	0.447

CN1CCCC1=O + CCCCCCCCn1cc[n+](C)c1.N#C[S-]
101 kPa, x2 = 0
Details	viscosity [mPa·s]
288.15 K	2.127
298.15 K	1.785
308.15 K	1.543
318.15 K	1.306

CN(C)C=O + CCCCCCCCn1cc[n+](C)c1.O=S(=O)([N-]S(=O)(=O)C(F)(F)F)C(F)(F)F
101 kPa, x2 = 0
Details	viscosity [mPa·s]
293.15 K	0.881
303.15 K	0.771
313.15 K	0.668
323.15 K	0.605
333.15 K	0.553
353.15 K	0.479
363.15 K	0.447

CCCCCCCCCC[n+]1ccn(C)c1.[Br-] + CCCCCCCCn1cc[n+](C)c1.[Br-] + O
298.15 K, 101 kPa
Details	electrical conductivity [S/m]
x2 = 0.001457, x1 = 0.0002702	0.7
x2 = 0.002534, x1 = 0.0004683	1.01
x2 = 0.003323, x1 = 0.0006123	1.2
x2 = 0.003985, x1 = 0.0007203	1.33
x2 = 0.00477, x1 = 0.0008642	1.45
x2 = 0.005466, x1 = 0.0009901	1.55

CN1CCCC1=O + CCCCCCCCn1cc[n+](C)c1.[Cl-]
100 kPa, x1 = 1
Details	viscosity [mPa·s]
293.15 K	1.853
318.15 K	1.259

CCCC[n+]1ccn(C)c1.O=S(=O)([N-]S(=O)(=O)C(F)(F)F)C(F)(F)F + CCCCCCCO
Details	viscosity [mPa·s]
298 K, 100 kPa, x1 = 1	49.7

CCCC[n+]1ccn(C)c1.O=S(=O)([N-]S(=O)(=O)C(F)(F)F)C(F)(F)F + CCCCCCO
Details	viscosity [mPa·s]
298 K, 100 kPa, x1 = 1	49.7

CC#N + CCCCCC[P+](CCCC)(CCCC)CCCC.F[B-](F)(F)F
100 kPa, x2 = 0
Details	viscosity [mPa·s]
293.15 K	0.354
298.15 K	0.338
303.15 K	0.324
308.15 K	0.31
313.15 K	0.298
318.15 K	0.286

CN1CCCC1=O + CCCCCC[n+]1ccn(C)c1.N#C[S-]
101 kPa, x2 = 0
Details	viscosity [mPa·s]
288.15 K	2.133
298.15 K	1.791
308.15 K	1.548
318.15 K	1.312

COCCOCCOCCOCCOC + CCCCCC[n+]1ccn(C)c1.O=S(=O)([N-]S(=O)(=O)C(F)(F)F)C(F)(F)F
Details	viscosity [mPa·s]
288.15 K, 100 kPa, x1 = 0.099	96

CCCCCC[n+]1ccn(C)c1.F[P-](F)(F)(F)(F)F + CCCCCC[n+]1ccn(C)c1.[Cl-]
101 kPa
Details	electrical conductivity [S/m]	viscosity [mPa·s]
303 K, x2 = 0.6	0.0103	–
303 K, x2 = 0.8	0.00536	–
303.15 K, x2 = 0.2	–	960
303.15 K, x2 = 0.4	–	1853
308 K, x2 = 0.4	0.0299	–
308 K, x2 = 0.8	0.00862	–
308.15 K, x2 = 0	–	360
313 K, x2 = 0	0.13	–
313 K, x2 = 0.4	0.0424	–
318 K, x2 = 0.6	0.0337	–
318.15 K, x2 = 0.4	–	600
323.15 K, x2 = 0.6	–	710
328 K, x2 = 0	0.26	–
328 K, x2 = 0.8	0.0419	–
328.15 K, x2 = 0.2	–	205

CN(C)C=O + CCCCCC[n+]1ccn(C)c1.[Cl-]
101 kPa, x1 = 1
Details	viscosity [mPa·s]
288.15 K	0.94
298.15 K	0.82

CCCC[n+]1ccn(C)c1.O=S(=O)([N-]S(=O)(=O)C(F)(F)F)C(F)(F)F + CCCCCO
Details	viscosity [mPa·s]
298 K, 100 kPa, x1 = 1	49.7

CCCCC[P+](CC)(CC)CC.O=S(=O)([N-]S(=O)(=O)C(F)(F)F)C(F)(F)F + CCCCC[N+](CC)(CC)CC.O=S(=O)([N-]S(=O)(=O)C(F)(F)F)C(F)(F)F
101.3 kPa, x2 = 0
Details	viscosity [mPa·s]
283.15 K	203
323.15 K	30.5

CCCC[n+]1ccn(C)c1.O=S(=O)([N-]S(=O)(=O)C(F)(F)F)C(F)(F)F + CCCCO
298 K
Details	electrical conductivity [S/m]	viscosity [mPa·s]
100 kPa, x1 = 0.05	–	3.52
100 kPa, x1 = 0.1	–	4.728
100 kPa, x1 = 0.1998	–	6.745
100 kPa, x1 = 0.2996	–	8.98
100 kPa, x1 = 0.399	–	11.9
100 kPa, x1 = 0.4991	–	15.1
100 kPa, x1 = 0.5995	–	19.41
100 kPa, x1 = 0.6984	–	24.48
100 kPa, x1 = 0.7971	–	31.76
100 kPa, x1 = 0.9005	–	39.89
100 kPa, x1 = 1	–	49.7
101 kPa, x2 = 0	–	50.4
101 kPa, x2 = 0.2936	0.561	–
101 kPa, x2 = 0.317	0.613	–
101 kPa, x2 = 0.5053	0.668	–
101 kPa, x2 = 0.6833	0.653	–
101 kPa, x2 = 0.8349	0.418	–
101 kPa, x2 = 0.8623	0.368	–

CCCC[n+]1ccn(C)c1.O=S(=O)([N-]S(=O)(=O)C(F)(F)F)C(F)(F)F + CCCCOC(C)=O
298.15 K, 100 kPa, x2 = 0
Details	electrical conductivity [S/m]	viscosity [mPa·s]
–	0.39	50.2

FC(F)(F)c1ccccc1 + CCCC[N+]1(C)CCCC1.FC(F)(F)C(F)(F)[P-](F)(F)(F)(C(F)(F)C(F)(F)F)C(F)(F)C(F)(F)F
101 kPa
Details	electrical conductivity [S/m]	viscosity [mPa·s]
298.1 K, x2 = 0	–	0.53
298.1 K, x2 = 0.059	0.368	–
298.1 K, x2 = 0.099	0.536	–
298.1 K, x2 = 0.144	0.663	–
298.1 K, x2 = 0.198	–	3.67
298.1 K, x2 = 0.203	0.762	–
298.1 K, x2 = 0.27	–	5.93
298.1 K, x2 = 0.274	0.696	–
298.1 K, x2 = 0.371	0.619	–
298.1 K, x2 = 0.495	–	21.7
298.1 K, x2 = 0.5	0.461	–
298.1 K, x2 = 0.69	0.311	55.1
298.1 K, x2 = 0.858	0.172	111.8
303 K, x2 = 0.063	0.394	–
303 K, x2 = 0.099	0.576	–
303 K, x2 = 0.144	0.711	–
303 K, x2 = 0.2	0.82	–
303 K, x2 = 0.274	0.772	–
303 K, x2 = 0.366	–	8.56
303 K, x2 = 0.374	0.681	–
303 K, x2 = 0.497	0.553	–
303 K, x2 = 0.498	–	17.83
303 K, x2 = 0.694	0.369	–
303 K, x2 = 0.852	–	84.4
303 K, x2 = 0.858	0.212	–
308.1 K, x2 = 0.063	0.415	–
308.1 K, x2 = 0.102	0.612	–
308.1 K, x2 = 0.141	0.766	–
308.1 K, x2 = 0.201	–	2.93
308.1 K, x2 = 0.206	0.886	–
308.1 K, x2 = 0.281	0.842	–
308.1 K, x2 = 0.366	–	7.87
308.1 K, x2 = 0.378	0.761	–
308.1 K, x2 = 0.5	0.611	–
308.1 K, x2 = 0.69	–	39.4
308.1 K, x2 = 0.694	0.435	–
308.1 K, x2 = 0.858	0.259	–
313 K, x2 = 0.063	0.434	–
313 K, x2 = 0.099	0.645	–
313 K, x2 = 0.141	–	1.77
313 K, x2 = 0.142	0.817	–
313 K, x2 = 0.203	0.951	–
313 K, x2 = 0.278	0.911	–
313 K, x2 = 0.371	0.834	–
313 K, x2 = 0.498	–	12.73
313 K, x2 = 0.5	0.688	–
313 K, x2 = 0.687	–	32.3
313 K, x2 = 0.697	0.504	–
313 K, x2 = 0.859	0.31	–
318.1 K, x2 = 0.063	0.456	–
318.1 K, x2 = 0.099	0.678	–
318.1 K, x2 = 0.142	0.86	–
318.1 K, x2 = 0.2	1.02	–
318.1 K, x2 = 0.275	0.988	–
318.1 K, x2 = 0.369	–	6.11
318.1 K, x2 = 0.372	0.914	–
318.1 K, x2 = 0.504	0.757	–
318.1 K, x2 = 0.687	–	26.6
318.1 K, x2 = 0.694	0.577	–
318.1 K, x2 = 0.855	0.361	–
323 K, x2 = 0	–	0.46
323 K, x2 = 0.026	0.204	–
323 K, x2 = 0.095	–	1.09
323 K, x2 = 0.099	0.715	–
323 K, x2 = 0.142	0.908	–
323 K, x2 = 0.201	1.08	–
323 K, x2 = 0.278	1.07	–
323 K, x2 = 0.372	0.991	–
323 K, x2 = 0.498	–	9.89
323 K, x2 = 0.501	0.834	–
323 K, x2 = 0.694	0.658	–
323 K, x2 = 0.856	–	37.4
323 K, x2 = 0.862	0.416	–
